Patent publication US6737383B1, “Herbicidal oxadiazolidines” (priority 1999, dated 2004)

Assays:
[1] = tested on: pigweed; test: Test B pre/postemergence pigweed; type: in vivo, Amaranthus retroflexus; conditions: for Redroot pigweed plant response rating: scale of 0 to 10 where 0 is no effect and 10 is complete control
In short: (§1)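 Test chemicals in a non-phytotoxic solvent mixture with surfactant were sprayed preemergence onto planted seeds and postemergence onto plants 2 to 18 cm tall (1- to 4-leaf stage). After twelve to sixteen days in a greenhouse, injury was visually rated against untreated controls from 0 (no effect) to 10 (complete control).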

[2] = tested on: sugar beet; test: Test B pre/postemergence sugar beet; type: in vivo, Beta vulgaris; conditions: for Sugarbeets plant response rating: scale of 0 to 10 where 0 is no effect and 10 is complete control
In short: as §1

[3] = tested on: rape; test: Test B pre/postemergence rape; type: in vivo, Brassica napus; conditions: for Rape plant response rating: scale of 0 to 10 where 0 is no effect and 10 is complete control
In short: as §1

[4] = tested on: purple nutsedge; test: Test B pre/postemergence purple nutsedge; type: in vivo, Cyperus rotundus; conditions: for Nutsedge plant response rating: scale of 0 to 10 where 0 is no effect and 10 is complete control
In short: as §1

[5] = tested on: crabgrass; test: Test B pre/postemergence crabgrass; type: in vivo, Digitaria sanguinalis; conditions: for Crabgrass plant response rating: scale of 0 to 10 where 0 is no effect and 10 is complete control
In short: as §1

[6] = tested on: velvetleaf; test: Test B pre/postemergence velvetleaf; type: in vivo, Abutilon theophrasti; conditions: for Velvetleaf plant response rating: scale of 0 to 10 where 0 is no effect and 10 is complete control
In short: as §1

[7] = tested on: wild oat; test: Test B pre/postemergence wild oat; type: in vivo, Avena fatua; conditions: for Wild oats plant response rating: scale of 0 to 10 where 0 is no effect and 10 is complete control
In short: as §1

[8] = tested on: morningglory; test: Test B pre/postemergence morningglory; type: in vivo, Ipomoea hederacea; conditions: for Morningglory plant response rating: scale of 0 to 10 where 0 is no effect and 10 is complete control
In short: as §1

[9] = tested on: wheat; test: Test B pre/postemergence wheat; type: in vivo, Triticum aestivum; conditions: for Wheat plant response rating: scale of 0 to 10 where 0 is no effect and 10 is complete control
In short: as §1

[10] = tested on: soybean; test: Test B pre/postemergence soybean; type: in vivo, Glycine max; conditions: for Soybean plant response rating: scale of 0 to 10 where 0 is no effect and 10 is complete control
In short: as §1

[11] = tested on: giant foxtail; test: Test B pre/postemergence giant foxtail; type: in vivo, Setaria faberii; conditions: for Giant foxtail plant response rating: scale of 0 to 10 where 0 is no effect and 10 is complete control
In short: as §1

[12] = tested on: bedstraw; test: Test B pre/postemergence bedstraw; type: in vivo, Galium aparine; conditions: for Bedstraw plant response rating: scale of 0 to 10 where 0 is no effect and 10 is complete control
In short: as §1

[13] = tested on: corn; test: Test B pre/postemergence corn; type: in vivo, Zea mays; conditions: for Corn plant response rating: scale of 0 to 10 where 0 is no effect and 10 is complete control
In short: as §1

[14] = tested on: blackgrass; test: Test B pre/postemergence blackgrass; type: in vivo, Alopecurus myosuroides; conditions: for Blackgrass plant response rating: scale of 0 to 10 where 0 is no effect and 10 is complete control
In short: as §1

[15] = tested on: surinam grass; test: Test B pre/postemergence surinam grass; type: in vivo, Brachiaria decumbens; conditions: for B. signalgrass plant response rating: scale of 0 to 10 where 0 is no effect and 10 is complete control
In short: as §1

[16] = tested on: cocklebur; test: Test B pre/postemergence cocklebur; type: in vivo, Xanthium strumarium; conditions: for Cocklebur plant response rating: scale of 0 to 10 where 0 is no effect and 10 is complete control
In short: as §1

[17] = Postemergence, Rate 125 g/ha, scale 0 to 10, 0 is no effect, 10 is complete control
[18] = Postemergence, Rate 250 g/ha, scale 0 to 10, 0 is no effect, 10 is complete control
[19] = Preemergence, Rate 62 g/ha, scale 0 to 10 (0 no effect, 10 complete control)
[20] = Rate 500 g/ha, Postemergence, scale 0 to 10, 0 no effect, 10 complete control

CC(C)N(C(=O)n1oc(=O)n(C2(C)CC2)c1=O)c1ccc(Cl)cc1 [Compound 361]
2: Sugarbeets plant response rating (0 to 10 scale) ([2]; Preemergence, Rate 125 g/ha) | Sugarbeets plant response rating ([2]; Rate 62 g/ha, Postemergence) | Rape plant response rating ([3]; Rate 62 g/ha, Postemergence) | Plant response rating, Crabgrass [5, 17] | Plant response rating, Crabgrass [5, 18] | Plant response rating, Crabgrass [5, 19] | Plant response rating, Wild oats [7, 17] | Plant response rating, Morningglory [8, 17] | Wheat plant response rating ([9]; Preemergence, Rate 250 g/ha) | Plant response rating, Wheat [9, 20] | Soybean plant response rating ([10]; Rate 62 g/ha, Postemergence) | Bedstraw plant response rating ([12]; Preemergence, Rate 500 g/ha) | Plant response rating, Cocklebur [16, 20]
5: Plant response rating, Redroot pigweed [1, 17] | Plant response rating, Sugarbeets [2, 17] | Plant response rating, Sugarbeets [2, 18] | Rape plant response rating (0 to 10 scale) ([3]; Preemergence, Rate 125 g/ha) | Rape plant response rating ([3]; Preemergence, Rate 250 g/ha) | Plant response rating, Crabgrass [5, 20] | Velvetleaf plant response rating ([6]; Preemergence, Rate 500 g/ha) | Plant response rating, Soybean [10, 18] | Plant response rating, Soybean [10, 20] | Plant response rating, Giant foxtail [11, 18] | Plant response rating, Giant foxtail [11, 20] | Blackgrass plant response rating ([14]; Rate 62 g/ha, Postemergence)
1: Plant response rating, Redroot pigweed [1, 19] | Morningglory plant response rating ([8]; Rate 62 g/ha, Postemergence) | Soybean plant response rating ([10]; Preemergence, Rate 500 g/ha) | Giant foxtail plant response rating ([11]; Rate 62 g/ha, Postemergence) | Corn plant response rating ([13]; Preemergence, Rate 250 g/ha)
0: Plant response rating, Sugarbeets [2, 19] | Plant response rating, Nutsedge [4, 17] | Plant response rating, Nutsedge [4, 18] | Plant response rating, Nutsedge [4, 19] | Nutsedge plant response rating (0 to 10 scale) ([4]; Preemergence, Rate 125 g/ha) | Nutsedge plant response rating ([4]; Preemergence, Rate 250 g/ha) | Nutsedge plant response rating ([4]; Preemergence, Rate 500 g/ha) | Nutsedge plant response rating ([4]; Rate 62 g/ha, Postemergence) | Plant response rating, Nutsedge [4, 20] | Crabgrass plant response rating ([5]; Rate 62 g/ha, Postemergence) | Plant response rating, Velvetleaf [6, 17] | Plant response rating, Velvetleaf [6, 18] | Plant response rating, Velvetleaf [6, 19] | Velvetleaf plant response rating (0 to 10 scale) ([6]; Preemergence, Rate 125 g/ha) | Velvetleaf plant response rating ([6]; Rate 62 g/ha, Postemergence) | Wild oats plant response rating ([7]; Rate 62 g/ha, Postemergence) | Plant response rating, Morningglory [8, 19] | Morningglory plant response rating (0 to 10 scale) ([8]; Preemergence, Rate 125 g/ha) | Morningglory plant response rating ([8]; Preemergence, Rate 250 g/ha) | Morningglory plant response rating ([8]; Preemergence, Rate 500 g/ha) | Plant response rating, Wheat [9, 17] | Plant response rating, Wheat [9, 18] | Plant response rating, Wheat [9, 19] | Wheat plant response rating (0 to 10 scale) ([9]; Preemergence, Rate 125 g/ha) | Wheat plant response rating ([9]; Rate 62 g/ha, Postemergence) | Plant response rating, Soybean [10, 19] | Soybean plant response rating (0 to 10 scale) ([10]; Preemergence, Rate 125 g/ha) | Soybean plant response rating ([10]; Preemergence, Rate 250 g/ha) | Plant response rating, Bedstraw [12, 19] | Bedstraw plant response rating (0 to 10 scale) ([12]; Preemergence, Rate 125 g/ha) | Bedstraw plant response rating ([12]; Preemergence, Rate 250 g/ha) | Plant response rating, Corn [13, 17] | Plant response rating, Corn [13, 18] | Plant response rating, Corn [13, 19] | Corn plant response rating (0 to 10 scale) ([13]; Preemergence, Rate 125 g/ha) | Corn plant response rating ([13]; Rate 62 g/ha, Postemergence) | Plant response rating, Corn [13, 20] | Plant response rating, B. signalgrass [15, 17] | B. signalgrass plant response rating ([15]; Rate 62 g/ha, Postemergence) | Plant response rating, Cocklebur [16, 17] | Plant response rating, Cocklebur [16, 18] | Plant response rating, Cocklebur [16, 19] | Cocklebur plant response rating (0 to 10 scale) ([16]; Preemergence, Rate 125 g/ha) | Cocklebur plant response rating ([16]; Preemergence, Rate 250 g/ha) | Cocklebur plant response rating ([16]; Preemergence, Rate 500 g/ha) | Cocklebur plant response rating ([16]; Rate 62 g/ha, Postemergence)
8: Redroot pigweed plant response rating ([1]; Preemergence, Rate 250 g/ha) | Wild oats plant response rating (0 to 10 scale) ([7]; Preemergence, Rate 125 g/ha) | Wild oats plant response rating ([7]; Preemergence, Rate 250 g/ha) | Plant response rating, Bedstraw [12, 18] | Plant response rating, Bedstraw [12, 20] | Plant response rating, Blackgrass [14, 18] | Blackgrass plant response rating (0 to 10 scale) ([14]; Preemergence, Rate 125 g/ha) | Plant response rating, Blackgrass [14, 20]
3: Redroot pigweed plant response rating ([1]; Rate 62 g/ha, Postemergence) | Plant response rating, Rape [3, 17] | Plant response rating, Rape [3, 18] | Plant response rating, Velvetleaf [6, 20] | Plant response rating, Blackgrass [14, 19] | Plant response rating, B. signalgrass [15, 18] | Plant response rating, B. signalgrass [15, 19]
7: Redroot pigweed plant response rating (0 to 10 scale) ([1]; Preemergence, Rate 125 g/ha) | Plant response rating, Redroot pigweed [1, 20] | Crabgrass plant response rating (0 to 10 scale) ([5]; Preemergence, Rate 125 g/ha) | Crabgrass plant response rating ([5]; Preemergence, Rate 250 g/ha) | Plant response rating, Wild oats [7, 19] | Plant response rating, Morningglory [8, 18] | Plant response rating, Giant foxtail [11, 19] | Plant response rating, Bedstraw [12, 17] | Bedstraw plant response rating ([12]; Rate 62 g/ha, Postemergence) | Plant response rating, Blackgrass [14, 17]
4: Plant response rating, Rape [3, 19] | Plant response rating, Rape [3, 20] | Velvetleaf plant response rating ([6]; Preemergence, Rate 250 g/ha) | Plant response rating, Soybean [10, 17] | Plant response rating, Giant foxtail [11, 17] | B. signalgrass plant response rating (0 to 10 scale, 0 is no effect, 10 is complete control) ([15]; Preemergence, Rate 125 g/ha) | B. signalgrass plant response rating ([15]; Preemergence, Rate 250 g/ha) | Plant response rating, B. signalgrass [15, 20]
10: Redroot pigweed plant response rating ([1]; Preemergence, Rate 500 g/ha) | Wild oats plant response rating ([7]; Preemergence, Rate 500 g/ha) | Giant foxtail plant response rating ([11]; Preemergence, Rate 250 g/ha) | Giant foxtail plant response rating ([11]; Preemergence, Rate 500 g/ha) | Blackgrass plant response rating ([14]; Preemergence, Rate 250 g/ha) | Blackgrass plant response rating ([14]; Preemergence, Rate 500 g/ha)
6: Plant response rating, Redroot pigweed [1, 18] | Sugarbeets plant response rating ([2]; Preemergence, Rate 250 g/ha) | Sugarbeets plant response rating ([2]; Preemergence, Rate 500 g/ha) | Plant response rating, Sugarbeets [2, 20] | Rape plant response rating ([3]; Preemergence, Rate 500 g/ha) | Plant response rating, Wild oats [7, 18] | Plant response rating, Wild oats [7, 20] | Wheat plant response rating ([9]; Preemergence, Rate 500 g/ha) | Corn plant response rating ([13]; Preemergence, Rate 500 g/ha) | B. signalgrass plant response rating ([15]; Preemergence, Rate 500 g/ha)
9: Crabgrass plant response rating ([5]; Preemergence, Rate 500 g/ha) | Giant foxtail plant response rating (0 to 10 scale) ([11]; Preemergence, Rate 125 g/ha)
